Assay results taken from patent US12485092B2, “Composition for promoting drug release of drug-delivery liposomes” (INDUSTRY ACADEMY COOPERATION FOUNDATION OF SEJONG UNIVERSITY, priority 2022, dated 2025).

How the values were obtained:
[1] = tested on: HCT-116 colorectal cancer cells
in vivo = conditions: SD, rat, iv, 5 mg/kg
Procedure: Eight week-old SD rats were randomly divided into three groups (doxorubicin, CAELYX and CAELYX+omega liposome), respectively. Each group was anesthetized with 100 mg/kg of ketamine, followed by inserting polyethylene tubes into the jugular vein and the carotid for drug injection and blood gathering, respectively. To the three groups, the doxorubicin solution, CAELYX and a CAELYX+omega liposome mixture were intravenously administered through the jugular vein at a 5 mg/kg doxorubicin dose. Thereafter, 120 μL of blood was collected at 1, 5, 15, 30, 60, 120, 180, 240, 360, 480, 720, 960, 1,440, 2,160 and 2,880 minutes, respectively, and centrifuged, followed by gathering 50 μl of plasma to analyze a doxorubicin concentration through HPLC. In order to prevent blood coagulation after blood gathering, 0.3 mL of physiological saline for injection containing 201U of heparin was flushed. In addition, after drug administration, urine was collected up to 24 hours and measured for volume.
For quantification of doxorubicin concentration in plasma and urine, 100 μL of acetonitrile and 15 μL of 15 μg/mL daunorubicin (internal standard material) were added and well mixed in 50 μL of the plasma or urine, and then centrifuged at 13,000 rpm for 5 minutes to remove the plasma protein. Thereafter, 100 μL of the supernatant was introduced into HPLC column (reversed phase column, particle size 5 inner diameter 4.6 mm, length 250 mm). Mobile phase composed of 68:32 (v/v) mixture of water (pH 2.60) and acetonitrile was used at a flow rate of 1 mL/min. For detection of drugs, a fluorescence detector was used wherein excitation (Ex) wavelength is 475 nm and emission (Em) wavelength is 555 nm.
The plasma concentration of doxorubicin quantified by HPLC assay was used to calculate pharmacokinetic parameters using WinNonlin program. For statistical analysis of the pharmacokinetic parameters among the above three groups, Tukey's test was carried out after performing analysis of variance (ANOVA), wherein P<0.05 is considered to be statistically significant.

IC50 [1]: 265 nM | IC50 (B16-F10 melanoma cells): 191 nM | AUC (in vivo): 9820 ng·h/mL | MRT (in vivo): 1.18 h | clearance (in vivo): 8.91 ± 2.06 mL/min/kg | half-life (in vivo): 1.97 h
Structure (SMILES): COc1cccc2c1C(=O)c1c(O)c3c(c(O)c1C2=O)C[C@@](O)(C(=O)CO)C[C@@H]3O[C@H]1C[C@H](N)[C@H](O)[C@H](C)O1 [Doxorubicin solution, doxorubicin]
